From patent US9149038B2, “4-amino-6-(heterocyclic)picolinates and 6-amino-2-(heterocyclic)pyrimidine-4-carboxylates and their use as herbicides” (Dow AgroSciences LLC, priority 2013, dated 2015)
Where two headings read alike, the source gives them in different places.

Columns and labels:
[1] = system: Key Broadleaf Weed and Crop Species; experiment: Post-Emergent Test II: postemergent herbicidal activity, visual rating after 14 d (Table 7); type: in vivo; settings: post-emergence, 336 h; for pest or weed control at 35 g/ha: 35 g ai/ha; for pest or weed control at 70 g/ha: 70 g ai/ha; for pest or weed control at 140 g/ha: 140 g ai/ha; for pest or weed control at 280 g/ha: 280 g ai/ha
Outline: (§1)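 Visual scoring at 14 d, 0 (no injury) to 100 (complete kill), relative to untreated plants. Postemergent overhead track-sprayer application, 187 L/ha, at a top rate plus serial ½×–1/16× rates, to plants grown 7–21 d at about 23–29° C day under a 15 h photoperiod, then subirrigated.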

[2] = system: Key Grass and Sedge Weeds as well as Grass Crops; experiment: Post-Emergent Test II: postemergent herbicidal activity, visual rating after 14 d (Table 8); type: in vivo; settings: post-emergence, 336 h; for pest or weed control at 35 g/ha: 35 g ai/ha; for pest or weed control at 70 g/ha: 70 g ai/ha; for pest or weed control at 140 g/ha: 140 g ai/ha; for pest or weed control at 280 g/ha: 280 g ai/ha
Outline: as §1

[3] = ABUTH: velvetleaf (Abutilon theophrasti), read-out: Visual Growth Reduction (%) 14 Days After Application ABUTH
[4] = AMARE: redroot pigweed (Amaranthus retroflexus), read-out: Visual Growth Reduction (%) 14 Days After Application AMARE
[5] = BRSNN: oilseed rape, canola (Brassica napus), read-out: Visual Growth Reduction (%) 14 Days After Application BRSNN
[6] = CHEAL: lambsquarters (Chenopodium album), read-out: Visual Growth Reduction (%) 14 Days After Application CHEAL
[7] = EPHHL: wild poinsettia (Euphorbia heterophylla), read-out: Visual Growth Reduction (%) 14 Days After Application EPHHL
[8] = HELAN: sunflower (Helianthus annuus), read-out: Visual Growth Reduction (%) 14 Days After Application HELAN
[9] = barnyardgrass (Echinochloa crus-galli), read-out: Visual Growth Reduction (%) 14 Days After Application, ECHCG
[10] = giant foxtail (Setaria faberi), read-out: Visual Growth Reduction (%) 14 Days After Application, SETFA
[11] = maize, corn (Zea mays), read-out: Visual Growth Reduction (%) 14 Days After Application, ZEAMX
[12] = rice (Oryza sativa), read-out: Visual Growth Reduction (%) 14 Days After Application, ORYSA
[13] = wheat, spring (Triticum aestivum), read-out: Visual Growth Reduction (%) 14 Days After Application, TRZAS
[14] = yellow nutsedge (Cyperus esculentus), read-out: Visual Growth Reduction (%) 14 Days After Application, CYPES

For `COC(=O)c1nc(-c2ccc3c(c2F)OC(F)(F)C3(F)F)cc(N)c1Cl` [Compound 106], the pest or weed control at 35 g/ha [1, 3] was 45 to 59%, the pest or weed control at 70 g/ha [1, 3] was 75 to 84% and the pest or weed control at 140 g/ha [1, 3] was 75 to 84%. The pest or weed control at 280 g/ha [1, 3] was 85 to 94%, the pest or weed control at 35 g/ha [1, 4] was 30 to 44% and the pest or weed control at 70 g/ha [1, 4] was 30 to 44%. It also gave a pest or weed control at 140 g/ha [1, 4] of 60 to 74%, a pest or weed control at 280 g/ha [1, 4] of 75 to 84% and a pest or weed control at 35 g/ha [1, 5] of 0 to 29%. For the same compound, the pest or weed control at 70 g/ha [1, 5] was 0 to 29%, the pest or weed control at 140 g/ha [1, 5] was 0 to 29% and the pest or weed control at 280 g/ha [1, 5] was 0 to 29%. The pest or weed control at 35 g/ha [1, 6] was 0 to 29%, the pest or weed control at 70 g/ha [1, 6] was 0 to 29% and the pest or weed control at 140 g/ha [1, 6] was 45 to 59%. For the same compound, the pest or weed control at 280 g/ha [1, 6] was 75 to 84%, the pest or weed control at 35 g/ha [1, 7] was 45 to 59% and the pest or weed control at 70 g/ha [1, 7] was 60 to 74%. For the same compound, the pest or weed control at 140 g/ha [1, 7] was 75 to 84%, the pest or weed control at 280 g/ha [1, 7] was 75 to 84% and the pest or weed control at 35 g/ha [1, 8] was 0 to 29%. The pest or weed control at 70 g/ha [1, 8] was 0 to 29%, the pest or weed control at 140 g/ha [1, 8] was 0 to 29% and the pest or weed control at 280 g/ha [1, 8] was 30 to 44%. For the same compound, the pest or weed control at 35 g/ha [2, 9] was 0 to 29%, the pest or weed control at 70 g/ha [2, 9] was 0 to 29% and the pest or weed control at 140 g/ha [2, 9] was 0 to 29%. It also gave a pest or weed control at 280 g/ha [2, 9] of 0 to 29%, a pest or weed control at 35 g/ha [2, 10] of 0 to 29% and a pest or weed control at 70 g/ha [2, 10] of 0 to 29%. It also gave a pest or weed control at 140 g/ha [2, 10] of 0 to 29%, a pest or weed control at 280 g/ha [2, 10] of 0 to 29% and a pest or weed control at 35 g/ha [2, 11] of 0 to 29%. It also gave a pest or weed control at 70 g/ha [2, 11] of 0 to 29%, a pest or weed control at 140 g/ha [2, 11] of 0 to 29% and a pest or weed control at 280 g/ha [2, 11] of 0 to 29%. The pest or weed control at 35 g/ha [2, 12] was 0 to 29%, the pest or weed control at 70 g/ha [2, 12] was 0 to 29% and the pest or weed control at 140 g/ha [2, 12] was 0 to 29%. It also gave a pest or weed control at 280 g/ha [2, 12] of 0 to 29%, a pest or weed control at 35 g/ha [2, 13] of 0 to 29% and a pest or weed control at 70 g/ha [2, 13] of 0 to 29%. The pest or weed control at 140 g/ha [2, 13] was 0 to 29%, the pest or weed control at 280 g/ha [2, 13] was 0 to 29% and the pest or weed control at 35 g/ha [2, 14] was 0 to 29%. For the same compound, the pest or weed control at 70 g/ha [2, 14] was 0 to 29%, the pest or weed control at 140 g/ha [2, 14] was 0 to 29% and the pest or weed control at 280 g/ha [2, 14] was 0 to 29%.
With `COC(=O)c1nc(-c2ccc(F)c3c2OCO3)cc(N)c1Cl` [Compound 92] the pest or weed control at 35 g/ha [1, 3] was 60 to 74%, the pest or weed control at 70 g/ha [1, 3] was 85 to 94% and the pest or weed control at 140 g/ha [1, 3] was 85 to 94%. It also gave a pest or weed control at 35 g/ha [1, 4] of 95 to 100%, a pest or weed control at 70 g/ha [1, 4] of 95 to 100% and a pest or weed control at 140 g/ha [1, 4] of 95 to 100%. The pest or weed control at 35 g/ha [1, 5] was 30 to 44%, the pest or weed control at 70 g/ha [1, 5] was 60 to 74% and the pest or weed control at 140 g/ha [1, 5] was 75 to 84%. The pest or weed control at 35 g/ha [1, 6] was 95 to 100%, the pest or weed control at 70 g/ha [1, 6] was 85 to 94% and the pest or weed control at 140 g/ha [1, 6] was 95 to 100%. The pest or weed control at 35 g/ha [1, 7] was 0 to 29%, the pest or weed control at 70 g/ha [1, 7] was 0 to 29% and the pest or weed control at 140 g/ha [1, 7] was 0 to 29%. It also gave a pest or weed control at 35 g/ha [1, 8] of 60 to 74%, a pest or weed control at 70 g/ha [1, 8] of 60 to 74% and a pest or weed control at 140 g/ha [1, 8] of 75 to 84%. For the same compound, the pest or weed control at 35 g/ha [2, 9] was 0 to 29%, the pest or weed control at 70 g/ha [2, 9] was 0 to 29% and the pest or weed control at 140 g/ha [2, 9] was 0 to 29%. It also gave a pest or weed control at 35 g/ha [2, 10] of 0 to 29%, a pest or weed control at 70 g/ha [2, 10] of 0 to 29% and a pest or weed control at 140 g/ha [2, 10] of 0 to 29%. The pest or weed control at 35 g/ha [2, 11] was 0 to 29%, the pest or weed control at 70 g/ha [2, 11] was 0 to 29% and the pest or weed control at 140 g/ha [2, 11] was 0 to 29%. The pest or weed control at 35 g/ha [2, 12] was 0 to 29%, the pest or weed control at 70 g/ha [2, 12] was 0 to 29% and the pest or weed control at 140 g/ha [2, 12] was 0 to 29%. The pest or weed control at 35 g/ha [2, 13] was 0 to 29%, the pest or weed control at 70 g/ha [2, 13] was 0 to 29% and the pest or weed control at 140 g/ha [2, 13] was 0 to 29%. For the same compound, the pest or weed control at 35 g/ha [2, 14] was 0 to 29%, the pest or weed control at 70 g/ha [2, 14] was 0 to 29% and the pest or weed control at 140 g/ha [2, 14] was 0 to 29%.
